In patent publication US5626867A, “Liposomes with a negative excess charge” (Max-Planck Gesellschaft zur Forderung der Wissenschaften …, priority 1992, dated 1997):

Tests used:
in vivo [1] = test: in vivo; set-up: species or system NMR-I mice; settings: mouse, iv, 5.7 mg/kg
Protocol: Each treatment group was composed of 3 animals. […] The plasma samples were analyzed by the procedure of Mross et al., (J. Chromatograph. 530 (1990), 192-199). […] The columns were dried for 10 minutes at 10 mbar. […] The residue was taken up in 50 μl (0.02 mol/l Na phosphate/acetonitrile, pH 3.9; 7:3, v/v) and analyzed by means of HPLC using a 4.6 mm×25 cm Merck Lichrocart C 18 RP 5 μm column. The flow rate was 1.5 ml/min. The excitation wavelength was 480 nm and the emission wavelength was 580 nm.

in vivo [2] = settings: mouse, iv, 5.7 mg/kg
Protocol: Female NMR-I mice (28-32 g, 6-8 weeks) were obtained from the Animal Breeding Institute, Hannover Germany. The same doses (5.7 mg/kg) were injected in each case into the cordal vein of the mice. Each treatment group was composed of 3 animals. After 1, 24 and 72 hours the mice were anaesthetized with CO2. Blood was collected from the mice by puncture of the heart and stored in heparinized Eppendorf vessels. Tissue samples from the mice (liver, heart etc.) were rinsed in 0.9% NaCl solution and stored at -70° C.
In order to detect doxorubicin and its metabolites in the individual organs, the tissue samples (about 200 mg in each case) were homogenized with a micro-dismembrator (Braun Melsungen AG, Germany). Doxorubicin and its metabolites were treated with an extraction solution at pH 3 (16.5% w/v AgNO3 in acetonitrile/water; 6:4, v/v), in order to release the anthracyclines from a complex with DNA and to precipitate the proteins. After addition of an internal standard (epirubicin) and centrifugation, the supernatant was applied directly to the HPLC column.

[3] = clinical use; cited from earlier work

## COc1cccc2c1C(=O)c1c(O)c3c(c(O)c1C2=O)C[C@@](O)(C(=O)CO)C[C@@H]3O[C@H]1C[C@H](N)[C@H](O)[C@H](C)O1 [free doxorubicin, doxorubicin]
In vivo [1]
  concentration at 1 h: 500 ng/mL
In vivo [2]
  remaining at 1 h: 23%
[3]
  cardiac toxicity: high cardiac toxicity
